In US4505854A, “Optically active dipeptides and the use thereof as tissue dissolving and histolytic agent in human beings” (Nattermann & Cie GmbH, priority 1981, dated 1985):
Where a name gives a salt, the structure may show the parent alone.

What was measured:
[1] = acute toxicity, intravenous administration to rodents
healthy guineapig skin = conditions: for activity (induction of necrosis, activation of macrophages): comparison of stereoisomeric 2-phenylglycyl-2-phenylglycine dipeptides; for histolysis / local changes at the administration site: 25 or 50 mg/animal (control 10.7 mg/animal), 7 days
Excerpt: They were then autopsied and the injection sites (skin and muscle) were subjected to pathological-anatomical and pathological-histological evaluation.
This is a chemotactic and activating action on macrophages, which also has a tissue dissolving effect. No systemic toxic symptoms or clinically detectable changes could be observed in any of the experimental animals.

[2] = local administration, guineapig skin

SMILES | LD50 ([1]; acute experiment, administered intravenously (to rodents)) | toxicity, times lower than prior dipeptides of essential aminoacids ([1]; compared with 300 mg/kg intravenously (rodents)) [times lower] | activity (induction of necrosis, activation of macrophages) (healthy guineapig skin) | general tolerance / systemic toxic symptoms (healthy guineapig skin; in vivo) | macrophage and giant cell infiltration at the administration site (healthy guineapig skin; [2]) | histolysis / local changes at the administration site (healthy guineapig skin; [2])
N[C@@H](C(=O)N[C@@H](C(=O)O)c1ccccc1)c1ccccc1 | 1,000 mg/kg | 3 | outstanding properties to induce necrosis and activate macrophages | no indications of general intolerance | massive infiltration of macrophages and giant cells | Local and sharply delineated histolysis
NC(C(=O)NC(C(=O)O)c1ccccc1)c1ccccc1 (mixture of isomers) [reference compound] |  |  | only a very low activity |  |  | no local changes
N[C@H](C(=O)N[C@H](C(=O)O)c1ccccc1)c1ccccc1 [L-2-phenylglycyl-L-2-phenylglycine, reference compound] |  |  | no activity |  |  | 
NCC(=O)O [glycine hydrobromide, reference compound] |  |  |  |  |  | no local changes
